pIC50: −log10 of the molar value.

For assay [1], the system named is Plasmodium falciparum. The assay can be described thus: Antimalarial activity against chloroquine-susceptible Plasmodium falciparum 3D7 infected in human A+ RBC assessed as inhibition of [3H]hypoxanthine uptake after 48 hrs by scintillation counting. The assay is classed as functional, organism-based.
Assay [2] concerns Plasmodium falciparum. The assay can be described thus: Antimalarial activity against chloroquine-resistant Plasmodium falciparum W2 infected in human A+ erythrocytes assessed as inhibition of [3H]hypoxanthine uptake after 48 hrs by scintillation counting. In kind it is functional, organism-based.

As usually defined, the pIC50 is the IC50 on a negative log10 scale, so that one unit is a factor of ten. On to `Clc1ccc2c(NCCNCc3cccc4ccccc34)ccnc2c1`, for which the figures for the pIC50 in the assay with Plasmodium falciparum [1] and in the assay with Plasmodium falciparum [2] were 6.33 and 5.92, respectively.
For the molecule `Clc1ccc2c(NCCNCc3c4ccccc4cc4ccccc34)ccnc2c1`, the pIC50 was 7.08 in the assay with Plasmodium falciparum [1] and 6.10 in the assay with Plasmodium falciparum [2].
The corresponding values for `Clc1ccc2c(NCCNCc3ccc4ccccc4c3)ccnc2c1` are 7.32 and 6.09.
